Earlier results, collected in PMC11676667, “Pharmacokinetics of Oral Cannabinoid Δ8-Tetrahydrocannabivarin and Its Main Metabolites in Healthy Participants” (Pharmaceuticals, 2024).
Where two headings read alike, the source gives them in different places.

How the values were obtained:
[1] = oral MCT oil formulation, healthy participants; cited from earlier work
CB1 receptor = conditions: in vitro, cited from earlier work
[2] = oral cannabis brownie; cited from earlier work

CCCc1cc(O)c2c(c1)OC(C)(C)[C@@H]1CC=C(C)C[C@@H]21 [Δ8-THCV, Δ8-tetrahydrocannabivarin]
safety and tolerability [1]: safe and well tolerated

CCCc1cc(O)c2c(c1)OC(C)(C)[C@@H]1CCC(C)=C[C@@H]21 [Δ9-THCV, Δ9-tetrahydrocannabivarin]
CB1 receptor antagonist potency relative to Δ8-THCV (CB1 receptor; at low doses): approximately two times more potent
CB1 receptor antagonist potency relative to Δ8-THCV (CB1 receptor): two-fold more potent

CCCc1cc(O)c2c(c1)OC(C)(C)[C@@H]1CCC(C(=O)O)=C[C@@H]21 [Δ9-THCV-COOH, 11-nor-9-carboxy-Δ9-THCV]
Tmax [2]: 3 h
